Test results: patent publication US7598271B1, “Crystalline paroxetine methane sulfonate” (Noven Therapeutics, LLC, priority 1997, dated 2009)
Where a name gives a salt, the structure may show the parent alone. Read-outs that look alike come from different tables or passages of the source.

Experiments:
[1] = Stability of paroxetine salts by HPLC (total amount of degradation); format: physicochemical
Excerpt: (§1) In the following tables 2 and 3, examples of results of hygroscopicity tests and stability tests (in comparison with known salts of paroxetine) are presented.

[2] = Solubility of paroxetine salts in water; format: physicochemical; conditions: for solubility: water
[3] = Hygroscopicity test of paroxetine salts (40° C., 75% rel. hum); format: physicochemical
Excerpt: as §1

[4] = background statement on known salts; cited from earlier work
[5] = causes undesired colouration during classical wet tabletting; cited from earlier work
[6] = background statement; cited from earlier work

CS(=O)(=O)O.Fc1ccc([C@@H]2CCNC[C@H]2COc2ccc3c(c2)OCO3)cc1 [methane sulfonate, Paroxetine Methane Sulfonate]
Solubility in 2-Propanol (20° C.): 7 mg/mL
Solubility in 2-Propanol (82° C.): 330 mg/mL
Solubility in Acetone (20° C.): 5 mg/mL
Solubility in Acetone (56° C.): 37 mg/mL
Solubility in Ethanol (20° C.): 36 mg/mL
Solubility in Ethanol (78° C.): 250 mg/mL
Solubility in Ethyl acetate (20° C.): 2 mg/mL
Solubility in Ethyl acetate (77° C.): 25 mg/mL
Solubility in n-Hexane (20° C.): <0.05 mg/mL
Solubility in n-Hexane (69° C.): 0.05 mg/mL
total amount of degradation by HPLC ([1]; 20° C., time not given): not observed
total amount of degradation by HPLC ([1]; 80° C., 3 months): <0.2%, 3 months
Solubility in water ([2]; 20° C.): >1000/10 min mg/ml
Solubility in water ([2]; 50° C.): 1300 mg/mL
water content (in %) at t = 0 [3]: 0.35%
water content (in %) at t = 4 weeks [3]: +0.04%

Fc1ccc([C@@H]2CCNC[C@H]2COc2ccc3c(c2)OCO3)cc1 [hydrochloride, paroxetine hydrochloride, reference compound]
water content (in %) at t = 4 weeks [3]: +2.5%

Paroxetine Acetate
stability (in words) [4]: unstable

Paroxetine Maleate [reference compound]
stability (in words) [4]: unstable
total amount of degradation by HPLC ([1]; 20° C., 12 months): 0.2%, 12 months
total amount of degradation by HPLC ([1]; 80° C., 5 days): >50%, 5 days

Fc1ccc([C@@H]2CCNC[C@H]2COc2ccc3c(c2)OCO3)cc1 [hydrochloride hemihydrate, paroxetine hydrochloride hemihydrate, reference compound]
photostability (in words) [5]: limited photostability
solubility ([2]; 20 °C): 4.9 mg/mL
solubility ([2]; 50 °C): 12.6 mg/mL
solubility in water (in words) [6]: only limited solubility in water

Cc1ccc(S(=O)(=O)O)cc1.Fc1ccc([C@@H]2CCNC[C@H]2COc2ccc3c(c2)OCO3)cc1 [p-toluene sulfonate, Paroxetine p-Toluene Sulfonate]
Solubility in 2-Propanol (20° C.): 14 mg/mL
Solubility in 2-Propanol (82° C.): >500 mg/mL
Solubility in Acetone (20° C.): 16 mg/mL
Solubility in Acetone (56° C.): 125 mg/mL
Solubility in Ethanol (20° C.): 50 mg/mL
Solubility in Ethanol (78° C.): >500 mg/mL
Solubility in Ethyl acetate (20° C.): 22 mg/mL
Solubility in Ethyl acetate (77° C.): >500 mg/mL
Solubility in n-Hexane (20° C.): <0.05 mg/mL
Solubility in n-Hexane (69° C.): <0.05 mg/mL
total amount of degradation by HPLC ([1]; 20° C., time not given): not observed
total amount of degradation by HPLC ([1]; 80° C., 3 months): <0.2%, 3 months
Solubility in water ([2]; 20° C.): >1000 mg/mL
Solubility in water ([2]; 50° C.): >1000 mg/mL
water content (in %) at t = 0 [3]: 0.70%
water content (in %) at t = 4 weeks [3]: <0.02%

Fc1ccc([C@@H]2CCNC[C@H]2COc2ccc3c(c2)OCO3)cc1 [hydrochloride anhydrate, paroxetine hydrochloride, reference compound]
Solubility in water ([2]; 20° C., hydrochloride): 8.2 mg/mL
Solubility in water ([2]; 50° C., hydrochloride): 24.2 mg/mL
